# Assay results as given in patent publication US20200163938A1, “PHARMACEUTICAL COMPOSITION COMPRISING IRON CHELATOR EXHIBITING ANTITUMOR ACTIVITY, ANTIBACTERIAL ACTIVITY AND/OR ANTIVIRUS ACTIVITY, AND HAVING REDUCED SIDE EFFECTS” (priority 2017, published 2020).
# Values joined by “and” are separate entries in the source; they are usually repeats but may differ in a detail not shown here. Identical values can stand only once. Like-named read-outs stand apart in the source and are kept apart here.
# What was measured:
# [1] = tested on: human breast cancer cell line MCF-7; test: Antitumor effects, cell viability (XTT method); format: cell-based; settings: FIG. 9
# Description: (§1) The antitumor effects of the chelating agents of test groups 1 to 10 on each of human lung cancer cell line A549, human liver cancer cell line PLC, and human colon adenocarcinoma cell line HCT116 were confirmed. A549 cells or PLC cells were seeded at 3000 cells/well, and HCT116 cells were seeded at 6000 cells/well. After 24 hours, the fetal bovine serum (FBS) concentration was changed from 10% to 1%, each compound of the test groups 1 to 10 was introduced into medium. Cell viability was confirmed after 48 hours by the Trypan blue method, or, cell viability was confirmed after 48 hours by performing medium exchange and then after 24 hours by performing the XTT method. Deferoxamine mesylate (Desferal (Trademark)) was used as a positive control. Results are as depicted in FIGS. 1A, 1B, 2 and 3.
# (§2) Moreover, similarly to the above experiment on antitumor effects, the antitumor effects of the chelating agent of test group 6 or 10 on each of human breast cancer cell line MCF-7 and human oral squamous cell carcinoma HSC-2 were confirmed.
# [2] = tested on: human oral squamous cell carcinoma HSC-2; test: Antitumor effects, cell viability (XTT method); format: cell-based; settings: FIG. 10
# Description: as §1, §2
# [3] = tested on: HSC-2 cells; test: Apoptosis induction, TUNEL staining; format: cell-based, human; settings: 100 μg/mL, 48 hours, FIG. 11A
# Description: (§3) Furthermore, the apoptosis-inducing effects of the chelating agents of test groups 6 and 10 on tumors were confirmed. First, 100 μg/mL of the chelating agent of test group 6 or 50 μg/mL of the chelating agent of test group 10 was added to HSC-2 cells in a culture solution. After 48 hours of reaction, TUNEL Assay was carried out. Specifically, apoptosis induction was evaluated by the TUNEL staining method using a MK500 in situ Apoptosis Detection Kit (Takara Bio Inc.).
# [4] = tested on: A549 cells; test: Apoptosis induction, TUNEL staining; format: cell-based, human; settings: 100 μg/mL, 48 hours, FIG. 11C
# Description: as §3
# Further, the apoptosis-inducing effects of the chelating agent of test group 6 or 10 on A549 cells were confirmed. 100 μg/mL of the chelating agent of test group 6 was added and 50 μg/mL of the chelating agent of test group 10 was added to the cells. After 48 hours of reaction, TUNEL staining was carried out similarly to the above.
# [5] = tested on: A549 cells; test: Western blot of apoptosis-related factors; format: cell-based, human; settings: A549 cell lysate; FIG. 12
# From the text: (§4) The cell lysate of each type of cells treated with the chelating agents of test groups 6 and 10 was Western-blotted, and then an increase or a decrease in apoptosis-related factors in treated cells was confirmed using the indicated antibodies. […] Concentration-dependent apoptosis induction was also biochemically confirmed.
# [6] = tested on: HSC-2 cells; test: Western blot of apoptosis-related factors; format: cell-based, human; settings: HSC-2 cell lysate; FIG. 12
# From the text: as §4
# [7] = tested on: MCF-7 cells; test: Western blot of apoptosis-related factors; format: cell-based, human; settings: MCF-7 cell lysate; FIG. 12
# From the text: as §4
# [8] = tested on: subcutaneously-transplanted HCT116 cells; format: in vivo, nude mice (BALB/c nu/nu); settings: mouse, in vivo, 200 mg/kg/day
# Description: Next, the antitumor effects of the chelating agents of test groups 6 and 10 on HCT116-cell subcutaneous transplantation model mice, into which HCT116 cells had been subcutaneously transplanted, were confirmed. Mice prepared herein were nude mice (BALB/c nu/nu, 6 weeks old: Clea Japan Inc.). HCT116 cells were adjusted at 3×10^6/mouse, and then mixed with Matrigel (BD Biosciences) at 1:1. The thus obtained mixture was administered to mice, thereby preparing subcutaneous tumors. The dosage was 200 mg/kg/day (5 times/week administration). […] Tissue sections of HCT116 cells subcutaneously transplanted into the test group 10 administration group were prepared, and then hematoxylin-eosin (HE) staining, and TUNEL staining were performed by the above-mentioned method.
# [9] = format: in vivo; design: NEFA: unit not given here; settings: for Body weight: rats
# Description: To a negative control group (saline administration; n=6), the same amount of saline was administered. On day 14 after administration, determining life or death, measurement of body weight, physical items (respiration, body temperature, behavior, etc.) were observed. Moreover, blood samples were taken from each group, and the right kidneys and the livers were removed. Results were as depicted in FIG. 5A to 5C and Tables 4 to 9.
# [10] = tested on: A. actinomycetemcomitans AaY4 (ATCC); test: Antibacterial activity, turbidity and ATP assay; format: cell-based, Aggregatibacter actinomycetemcomitans; settings: anaerobic culture 37° C., 18 hours; FIGS. 7A, 7B
# Description: A bacterial strain of one of periodontopathic bacteria, A. actinomycetemcomitans, used herein was AaY4 (ATCC). With the use of a liquid medium prepared by adding a yeast extract, sodium bicarbonate and the chelating agent of each test group to TSB medium, anaerobic culture (Anaeropack-anaerobic) was performed at 37° C. for 18 hours. Turbidity was measured using absorbance (OD570 or 595 nm), and cell activity was measured using an ATP assay kit. Results were as depicted in FIGS. 7A and 7B.
# [11] = tested on: P. gingivalis Pg W83; test: Antibacterial activity, turbidity and ATP assay; format: cell-based, Porphyromonas gingivalis; settings: anaerobic culture 37° C., 18 hours, OD595 nm; FIG. 8
# Description: A bacterial strain of one of periodontopathic bacteria, gram-negative bacillus, P. gingivalis, used herein was Pg W83. With the use of a liquid medium prepared by adding the chelating agent of each test group to a modified GAM bouillon medium, anaerobic culture (Anaeropack.anaerobic) was performed at 37° C. for 18 hours. Turbidity was found from optical density (OD595 nm). Results were as depicted in FIG. 8.
# [12] = rat blood, oral 200 mg/kg, day 14
# [13] = rat blood, oral 1000 mg/kg, day 14, 1000 mg/kg
smiles,measurement,setting,value
Cl.OCC1OC(O)C(NCc2ccc(O)c(O)c2O)C(O)C1O (stereo not drawn) [Test group 6],antitumor effects on MCF-7 (cell viability),[1],exhibit antitumor effects
same,antitumor effects on HSC-2 (cell viability),[2],exhibit antitumor effects
same,apoptosis-inducing effects (TUNEL staining),[3],green-stained cells indicating apoptosis were confirmed
same,apoptosis-inducing effects (TUNEL staining),[4],green-stained cells (FITC positive cells) indicating apoptosis were confirmed
same,PARP cleaved fragments and caspase-3-cleaved fragments (Western blot),[5],PARP cleaved fragments and caspase-3-cleaved fragments were confirmed
same,PARP cleaved fragments and caspase-3-cleaved fragments (Western blot),[6],PARP cleaved fragments and caspase-3-cleaved fragments were confirmed
same,PARP cleaved fragments and caspase-3-cleaved fragments (Western blot),[7],PARP cleaved fragments and caspase-3-cleaved fragments were confirmed
same,body weight change,[8],no body weight change due to administration was observed
same,ALP,[9]; [12],745 IU/L
same,ALT,[9]; [12],34 IU/L
same,AST,[9]; [12],58 IU/L
same,BUN,[9]; [12],27.2 mg/dL
same,CRE,[9]; [12],0.37 mg/dL
same,Ca,[9]; [12],10.2 mg/dL
same,GLU,[9]; [12],212 mg/dL
same,K,[9]; [12],3.6 mEQ/L
same,LD,[9]; [12],45 IU/L
same,NEFA,[9]; [12],58
same,Na,[9]; [12],141 mEQ/L
same,T-Bil,[9]; [12],0.03 mg/dL
same,TP,[9]; [12],5.1 g/dL
same,ALP,[9]; [13],437 IU/L and 471 IU/L
same,BUN,[9]; [13],22.2 mg/dL and 28.9 mg/dL
same,CRE,[9]; [13],0.31 mg/dL and 0.48 mg/dL
same,Ca,[9]; [13],10.2 mg/dL and 11.0 mg/dL
same,GLU,[9]; [13],159 mg/dL and 199 mg/dL
same,K,[9]; [13],4.5 mEQ/L and 4.1 mEQ/L
same,Na,[9]; [13],144 mEQ/L and 143 mEQ/L
same,TP,[9]; [13],5.4 g/dL and 5.1 g/dL
same,Body weight,[9]; oral 200 mg/kg,180.37 g
same,Body weight,"[9]; oral 1000 mg/kg, 1000 mg/kg",174.48 g and 178.68 g
same,"antimicrobial effects on A. actinomycetemcomitans (turbidity, ATP activity)",[10],strong antimicrobial effects
same,antimicrobial effects on P. gingivalis (turbidity),[11],exhibited antimicrobial effects
